Positions of bridges follow the written chain, without caps; N, C: chain ends. Residues, ends and D or L forms follow the SMILES beside them.
Tests used:
Format in all cases: binding
[1] = molecular target: T1, FGF-R4 ECD (Homo sapiens, UniProt P22455); experiment: single concentration BLI of crude peptides; settings: crude T18 selection 1 (1:1:1) peptides, single concentration BLI (Table S4); read-out: KD (4)
T1 construct: DNA constructs for the extracellular domain (ECD) of human FGF-; HPC4 (C); made in house; host or cells: HEK 293-6E
T1 sequence (P22455 22-369 limits assumed): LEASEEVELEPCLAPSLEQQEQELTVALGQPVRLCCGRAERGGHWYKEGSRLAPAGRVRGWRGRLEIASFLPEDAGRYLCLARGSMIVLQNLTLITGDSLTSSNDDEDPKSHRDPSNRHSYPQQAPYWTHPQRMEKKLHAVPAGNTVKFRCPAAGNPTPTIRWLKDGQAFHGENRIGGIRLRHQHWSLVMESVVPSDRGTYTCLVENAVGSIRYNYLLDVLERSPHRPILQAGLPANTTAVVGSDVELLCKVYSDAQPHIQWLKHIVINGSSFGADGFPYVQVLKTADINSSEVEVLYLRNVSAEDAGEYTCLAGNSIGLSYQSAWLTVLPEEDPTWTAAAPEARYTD
Procedure, shortened: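 Streptavidin biosensors carrying biotinylated FGF receptor ECD were immersed in peptide (~1 μM for crude single-point runs, a concentration series for purified peptides) and then in peptide-free buffer. KD was obtained by fitting the BLI association and dissociation curves.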

[2] = molecular target: T2, FGF-R1C ECD (Homo sapiens, UniProt P11362); experiment: biochemical; design: DNA constructs for the extracellular domain (ECD) of human FGF-; HPC4 (C); made in house; host or cells: HEK 293-6E
T2 sequence (P11362 22-376 limits assumed): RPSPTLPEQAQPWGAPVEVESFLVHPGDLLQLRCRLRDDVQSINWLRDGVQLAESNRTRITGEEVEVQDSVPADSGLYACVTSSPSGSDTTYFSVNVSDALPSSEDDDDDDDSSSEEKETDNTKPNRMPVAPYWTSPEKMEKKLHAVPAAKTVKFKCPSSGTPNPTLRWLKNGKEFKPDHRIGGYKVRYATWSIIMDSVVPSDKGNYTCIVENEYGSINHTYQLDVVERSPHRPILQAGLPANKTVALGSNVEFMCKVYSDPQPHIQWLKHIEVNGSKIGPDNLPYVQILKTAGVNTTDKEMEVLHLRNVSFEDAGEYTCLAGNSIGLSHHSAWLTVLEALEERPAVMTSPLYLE
Procedure, shortened: (§1)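 Biolayer interferometry with biotinylated FGF-R ECD on streptavidin biosensors in PBS pH 7.4, 0.05% Tween-20, 0.01% BSA. Multi-concentration: purified peptide dilution series fitted to a multi-point KD model.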

[3] = molecular target: T3, FGF-R3C ECD (Homo sapiens, UniProt P22607); experiment: biochemical; design: DNA constructs for the extracellular domain (ECD) of human FGF-; HPC4 (C); made in house; host or cells: HEK 293-6E
T3 sequence (P22607 23-375 limits assumed): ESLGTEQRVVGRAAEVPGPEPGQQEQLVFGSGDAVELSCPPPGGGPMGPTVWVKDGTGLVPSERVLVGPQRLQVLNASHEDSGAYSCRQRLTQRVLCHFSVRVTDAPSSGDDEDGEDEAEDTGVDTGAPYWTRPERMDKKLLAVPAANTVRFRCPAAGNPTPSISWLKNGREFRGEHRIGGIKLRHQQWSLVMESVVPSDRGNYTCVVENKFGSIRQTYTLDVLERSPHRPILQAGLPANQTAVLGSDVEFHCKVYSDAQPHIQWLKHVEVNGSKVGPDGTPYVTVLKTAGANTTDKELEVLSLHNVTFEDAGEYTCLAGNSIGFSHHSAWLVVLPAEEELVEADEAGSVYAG
Procedure, shortened: as §1

| SMILES | Kd [1] [µM] | Kd [2] [µM] | Kd [3] [µM] |
| --- | --- | --- | --- |
| CC[C@H](C)[C@@H]1NC(=O)[C@H](CCC(=O)O)NC(=O)[C@H](CCCNC(=N)N)NC(=O)[C@@H](NC(=O)[C@H](CCSC)NC(C)=O)CSSC[C@@H](C(=O)NCC(=O)N[C@@H](CO)C(=O)NCC(=O)N[C@@H](CO)C(=O)N[C@@H](CC(=O)O)C(=O)N[C@@H](Cc2ccc(O)cc2)C(=O)N[C@@H](CCCCN)C(=O)N[C@@H](CC(=O)O)C(=O)N[C@@H](CC(=O)O)C(=O)N[C@@H](CC(=O)O)C(=O)N[C@@H](CC(=O)O)C(=O)N[C@@H](CCCCN)C(N)=O)NC(=O)[C@H](CCC(N)=O)NC(=O)[C@H](Cc2c[nH]c3ccccc23)NC(=O)[C@H](CC(C)C)NC(=O)[C@H](CCC(N)=O)NC(=O)[C@H](Cc2c[nH]c3ccccc23)NC(=O)[C@H](Cc2ccc(O)cc2)NC(=O)[C@H](CCCNC(=N)N)NC1=O (Ac-MCREIRYWQLWQCGSGSDYKDDDDK-NH2; disulfide 2-13) | 0.027 | > 10 | > 10 |
| CSCC[C@H](NC(C)=O)C(=O)N[C@H]1CSSC[C@@H](C(=O)NCC(=O)N[C@@H](CO)C(=O)NCC(=O)N[C@@H](CO)C(=O)N[C@@H](CCC(=O)O)C(=O)N[C@@H](CCC(=O)O)C(=O)NCC(=O)N[C@@H](CO)C(=O)NCC(=O)N[C@@H](CO)C(=O)N[C@@H](CC(=O)O)C(=O)N[C@@H](Cc2ccc(O)cc2)C(=O)N[C@@H](CCCCN)C(=O)N[C@@H](CC(=O)O)C(=O)N[C@@H](CC(=O)O)C(=O)N[C@@H](CC(=O)O)C(=O)N[C@@H](CC(=O)O)C(=O)N[C@@H](CCCCN)C(N)=O)NC(=O)[C@H](CCCNC(=N)N)NC(=O)[C@H](CCC(N)=O)NC(=O)[C@H](Cc2c[nH]cn2)NC(=O)[C@H](Cc2c[nH]c3ccccc23)NC(=O)[C@H](CC(C)C)NC(=O)[C@H](CCCCN)NC(=O)[C@H](Cc2c[nH]c3ccccc23)NC(=O)[C@H](Cc2ccc(O)cc2)NC(=O)[C@H](Cc2ccccc2)NC(=O)[C@H](CC(C)C)NC(=O)[C@H](Cc2c[nH]cn2)NC(=O)[C@H](CCCNC(=N)N)NC1=O (Ac-MCRHLFYWKLWHQRCGSGSEEGSGSDYKDDDDK-NH2; disulfide 2-15) | 0.002 | > 10 | > 10 |
| CSCC[C@H](NC(C)=O)C(=O)N[C@H]1CSSC[C@@H](C(=O)NCC(=O)N[C@@H](CO)C(=O)NCC(=O)N[C@@H](CO)C(=O)N[C@@H](CC(=O)O)C(=O)N[C@@H](Cc2ccc(O)cc2)C(=O)N[C@@H](CCCCN)C(=O)N[C@@H](CC(=O)O)C(=O)N[C@@H](CC(=O)O)C(=O)N[C@@H](CC(=O)O)C(=O)N[C@@H](CC(=O)O)C(=O)N[C@@H](CCCCN)C(N)=O)NC(=O)[C@H](CCCCN)NC(=O)[C@H](CCCNC(=N)N)NC(=O)[C@H](Cc2c[nH]cn2)NC(=O)[C@H](C(C)C)NC(=O)[C@H](CC(C)C)NC(=O)[C@H](CCC(N)=O)NC(=O)[C@H](Cc2ccc(O)cc2)NC(=O)[C@H](Cc2ccc(O)cc2)NC(=O)[C@H](CCCCN)NC(=O)[C@H](C(C)C)NC(=O)[C@H](Cc2c[nH]c3ccccc23)NC(=O)[C@H](CCCNC(=N)N)NC1=O (Ac-MCRWVKYYQLVHRKCGSGSDYKDDDDK-NH2; disulfide 2-15) | 0.001 | > 10 | > 10 |
| CC[C@H](C)[C@@H]1NC(=O)[C@H](CO)NC(=O)[C@@H](NC(=O)[C@H](CCSC)NC(C)=O)CSSC[C@@H](C(=O)NCC(=O)N[C@@H](CO)C(=O)NCC(=O)N[C@@H](CO)C(=O)N[C@@H](CC(=O)O)C(=O)N[C@@H](Cc2ccc(O)cc2)C(=O)N[C@@H](CCCCN)C(=O)N[C@@H](CC(=O)O)C(=O)N[C@@H](CC(=O)O)C(=O)N[C@@H](CC(=O)O)C(=O)N[C@@H](CC(=O)O)C(=O)N[C@@H](CCCCN)C(N)=O)NC(=O)[C@H](CC(C)C)NC(=O)[C@@H]2CCCN2C(=O)[C@H](CCCCN)NC(=O)[C@H]([C@@H](C)O)NC(=O)[C@H]([C@@H](C)CC)NC(=O)[C@H](CCCCN)NC(=O)[C@H](Cc2ccc(O)cc2)NC(=O)[C@H](Cc2c[nH]c3ccccc23)NC(=O)[C@H](CC(C)C)NC1=O (Ac-MCSILWYKITKPLCGSGSDYKDDDDK-NH2; disulfide 2-14) | 0.013 | > 10 | > 10 |
| CSCC[C@H](NC(C)=O)C(=O)N[C@H]1CSSC[C@@H](C(=O)NCC(=O)N[C@@H](CO)C(=O)NCC(=O)N[C@@H](CO)C(=O)N[C@@H](CCC(=O)O)C(=O)N[C@@H](CCC(=O)O)C(=O)NCC(=O)N[C@@H](CO)C(=O)NCC(=O)N[C@@H](CO)C(=O)N[C@@H](CC(=O)O)C(=O)N[C@@H](Cc2ccc(O)cc2)C(=O)N[C@@H](CCCCN)C(=O)N[C@@H](CC(=O)O)C(=O)N[C@@H](CC(=O)O)C(=O)N[C@@H](CC(=O)O)C(=O)N[C@@H](CC(=O)O)C(=O)N[C@@H](CCCCN)C(N)=O)NC(=O)[C@H](Cc2c[nH]cn2)NC(=O)[C@H](Cc2ccccc2)NC(=O)[C@H](CC(C)C)NC(=O)[C@H](CCCCN)NC(=O)[C@H](Cc2c[nH]c3ccccc23)NC(=O)[C@H](Cc2ccc(O)cc2)NC(=O)[C@H](Cc2ccc(O)cc2)NC(=O)[C@H](CC(C)C)NC(=O)[C@H](Cc2c[nH]cn2)NC(=O)[C@H](CCCNC(=N)N)NC(=O)CNC(=O)[C@H]([C@@H](C)O)NC1=O (Ac-MCTGRHLYYWKLFHCGSGSEEGSGSDYKDDDDK-NH2; disulfide 2-15) | 0.01 | > 10 | > 10 |
| CSCC[C@H](NC(C)=O)C(=O)N[C@H]1CSSC[C@@H](C(=O)NCC(=O)N[C@@H](CO)C(=O)NCC(=O)N[C@@H](CO)C(=O)N[C@@H](CC(=O)O)C(=O)N[C@@H](Cc2ccc(O)cc2)C(=O)N[C@@H](CCCCN)C(=O)N[C@@H](CC(=O)O)C(=O)N[C@@H](CC(=O)O)C(=O)N[C@@H](CC(=O)O)C(=O)N[C@@H](CC(=O)O)C(=O)N[C@@H](CCCCN)C(N)=O)NC(=O)[C@H](CCC(N)=O)NC(=O)[C@H](Cc2c[nH]cn2)NC(=O)[C@H](Cc2c[nH]c3ccccc23)NC(=O)[C@H](CC(C)C)NC(=O)[C@H]([C@@H](C)O)NC(=O)[C@H](CCC(=O)O)NC(=O)[C@H](Cc2ccc(O)cc2)NC(=O)[C@@H]2CCCN2C(=O)[C@H](Cc2c[nH]cn2)NC(=O)[C@H](CCCNC(=N)N)NC(=O)[C@H](Cc2c[nH]cn2)NC(=O)[C@H]([C@@H](C)O)NC1=O (Ac-MCTHRHPYETLWHQCGSGSDYKDDDDK-NH2; disulfide 2-15) | > 10 | > 10 | > 10 |
| CC[C@H](C)[C@@H]1NC(=O)[C@H](CC(C)C)NC(=O)[C@H](Cc2ccc(O)cc2)NC(=O)[C@H](Cc2c[nH]cn2)NC(=O)[C@H](Cc2c[nH]cn2)NC(=O)CNC(=O)[C@H](CC(C)C)NC(=O)[C@H](C(C)C)NC(=O)[C@H](Cc2ccccc2)NC(=O)[C@H](CC(=O)O)NC(=O)[C@H](Cc2ccc(O)cc2)NC(=O)[C@H]([C@@H](C)O)NC(=O)[C@@H](NC(=O)[C@H](CCSC)NC(C)=O)CSSC[C@@H](C(=O)NCC(=O)N[C@@H](CO)C(=O)NCC(=O)N[C@@H](CO)C(=O)N[C@@H](CC(=O)O)C(=O)N[C@@H](Cc2ccc(O)cc2)C(=O)N[C@@H](CCCCN)C(=O)N[C@@H](CC(=O)O)C(=O)N[C@@H](CC(=O)O)C(=O)N[C@@H](CC(=O)O)C(=O)N[C@@H](CC(=O)O)C(=O)N[C@@H](CCCCN)C(N)=O)NC1=O (Ac-MCTYDFVLGHHYLICGSGSDYKDDDDK-NH2; disulfide 2-15) | > 10 | > 10 | > 10 |

Source: article PMC10763615, “Identification and engineering of potent cyclic peptides with selective or promiscuous binding through biochemical profiling and bioinformatic data analysis” (RSC Chemical Biology, 2023)
